Data as given in patent US20060073216A1, “Compositions and methods for control of bovine mastitis” (Solution Biosciences, Inc., priority 2002, published 2006).

Test: Solubility in water
Assay type: physicochemical
Settings: water at 75° F. (ca. 24° C.), expressed as Cl2

Row | solubility in water | SMILES
1 | about 405 ppm | CC1(C)C(=O)N(Br)C(=O)N1Br [1,3-dibromo-5,5dimethylhydantoin, 1,3-dibromo-5,5-dimethylhydantoin]
2 | about 890 ppm | CC1(C)C(=O)N(Cl)C(=O)N1Br [N,N′-bromochloro-5,5-dimethylhydantoin]
